This assay deals with T1, UCHL1 (Homo sapiens, UniProt P09936).
T1 construct: made in house; host or cells: HEK293T
T1 sequence (P09936 1-223): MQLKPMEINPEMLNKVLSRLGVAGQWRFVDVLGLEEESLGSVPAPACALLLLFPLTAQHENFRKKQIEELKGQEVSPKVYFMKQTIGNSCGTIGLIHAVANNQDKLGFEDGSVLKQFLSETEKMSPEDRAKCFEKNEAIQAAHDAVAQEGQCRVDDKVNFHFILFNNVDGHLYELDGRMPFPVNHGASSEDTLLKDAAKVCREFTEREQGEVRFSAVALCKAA
The assay can be described thus: UCHL1 biochemical IC50 assay (fluorescence polarisation). The conditions noted are these: 30 min enzyme/compound pre-incubation at room temp, read after 2 hr incubation, read-out: Activity range (UCHL1 biochemical IC50 assay). The procedure, abridged: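 FLAG-UCHL1 purified from transfected HEK293T cells was preincubated 30 min at room temperature with compound (8 points, 100–0.03 μM final) in Tris pH 7.5 buffer with Tween 20, BSA and beta-mercaptoethanol. Reaction started with 50 nM TAMRA-peptide–ubiquitin isopeptide substrate; fluorescence polarisation (ex 540/em 590 nm) read at once and after 2 h.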
In general terms: In fluorescence polarisation assays a small probe gives low polarisation when free and higher when bound to something large.

As to `CCNC(=O)c1cccc(-c2cnc(NC(=O)[C@H]3CCN(C#N)C3)s2)n1` [Example 225, (S)-6-(2-(1-cyanopyrrolidine-3-carboxamido)thiazol-5-yl)-N-ethylpicolinamide], the IC50 was below 1000 nM.
Under `Cn1ncc2cc(-c3cnc(NC(=O)[C@H]4CCN(C#N)C4)s3)ccc21` [Example 226, (S)-1-cyano-N-(5-(1-methyl-1H-indazol-5-yl)thiazol-2-yl)pyrrolidine-3-carboxamide] stands below 1000 nM; under `COCCn1ncc2cc(-c3cnc(NC(=O)[C@H]4CCN(C#N)C4)s3)ccc21` [Example 227, (S)-1-cyano-N-(5-(1-(2-methoxyethyl)-1H-indazol-5-yl)thiazol-2-yl)pyrrolidine-3-carboxamide], below 1000 nM; under `N#CN1CC[C@H](C(=O)Nc2ncc(-c3cccc4c3NC(=O)C4)s2)C1` [Example 228, (S)-1-cyano-N-(5-(2-oxoindolin-7-yl)thiazol-2-yl)pyrrolidine-3-carboxamide], below 1000 nM.
For the molecule `N#CN1CC[C@H](C(=O)Nc2ncc(-c3cccc4[nH]ncc34)s2)C1` [Example 230, (S)—N-(5-(1H-indazol-4-yl)thiazol-2-yl)-1-cyanopyrrolidine-3-carboxamide], the IC50 was below 1000 nM.
Under `CNC(=O)c1cc(-c2cnc(NC(=O)[C@H]3CCN(C#N)C3)s2)ccc1F` [Example 231, (S)-1-cyano-N-(5-(4-fluoro-3-(methylcarbamoyl)phenyl)thiazol-2-yl) pyrrolidine-3-carboxamide] stands below 1000 nM; under `N#CN1CC[C@H](C(=O)Nc2ncc(-c3cccc(C(N)=O)c3)s2)C1` [Example 232, (S)-N-(5-(3-carbamoylphenyl)thiazol-2-yl)-1-cyanopyrrolidine-3-carboxamide], below 1000 nM.
On to `CNC(=O)c1cccc(-c2cnc(NC(=O)[C@H]3CCN(C#N)C3)s2)c1` [Example 233, (S)-1-cyano-N-(5-(3-(methylcarbamoyl)phenyl)thiazol-2-yl)pyrrolidine-3-carboxamide], for which the IC50 is below 1000 nM.
Under `CCNC(=O)c1cccc(-c2cnc(NC(=O)[C@H]3CCN(C#N)C3)s2)c1` [Example 234, (S)-1-cyano-N-(5-(3-(ethylcarbamoyl)phenyl)thiazol-2-yl)pyrrolidine-3-carboxamide] stands below 1000 nM; under `CN(C)C(=O)c1cccc(-c2cnc(NC(=O)[C@H]3CCN(C#N)C3)s2)c1` [Example 235, (S)-1-cyano-N-(5-(3-(dimethylcarbamoyl)phenyl)thiazol-2-yl)pyrrolidine-3-carboxamide], below 1000 nM.
To `N#CN1CC[C@H](C(=O)Nc2ncc(-c3ccc(F)c(C(N)=O)c3)s2)C1` [Example 236, (S)-N-(5-(3-carbamoyl-4-fluorophenyl)thiazol-2-yl)-1-cyanopyrrolidine-3-carboxamide] belongs below 1000 nM; to `N#CN1CC[C@H](C(=O)Nc2ncc(-c3ccc(Cl)c(C(N)=O)c3)s2)C1` [Example 237, (S)-N-(5-(3-carbamoyl-4-chlorophenyl)thiazol-2-yl)-1-cyanopyrrolidine-3-carboxamide], below 1000 nM; to `CNC(=O)c1cc(-c2cnc(NC(=O)[C@H]3CCN(C#N)C3)s2)ccc1Cl` [Example 238, (S)-N-(5-(4-chloro-3-(methylcarbamoyl)phenyl)thiazol-2-yl)-1-cyanopyrrolidine-3-carboxamide], below 1000 nM.
For `C#CCNC(=O)c1cc(-c2cnc(NC(=O)[C@H]3CCN(C#N)C3)s2)ccc1Cl` [Example 239, (S)-N-(5-(4-chloro-3-(prop-2-yn-1-ylcarbarmoyl)phenyl)thiazol-2-yl)-1-cyanopyrrolidine-3-carboxamide], the IC50 was below 1000 nM.
As for `CC(C)S(=O)(=O)N1CCn2nc(NC(=O)[C@H]3CCN(C#N)C3)cc2C1` [Example 240, (S)-1-cyano-N-(5-(isopropylsulfonyl)-4,5,6,7-tetrahydropyrazolo[1,5-a]pyrazin-2 yl)pyrrolidine-3-carboxamide], the IC50 is below 1000 nM.
To `N#CN1CC[C@H](C(=O)Nc2cc3n(n2)CCN(c2ccccc2)C3)C1` [Example 241, (S)-1-cyano-N-(5-phenyl-4,5,6,7-tetrahydropyrazolo[1,5-a]pyrazin-2-yl)pyrrolidine-3-carboxamide] belongs below 1000 nM; to `N#CN1CC[C@H](C(=O)Nc2cc3n(n2)CCN(Cc2ccccc2)C3)C1` [Example 242, (S)—N-(5-benzyl-4,5,6,7-tetrahydropyrazolo[1,5-a]pyrazin-2-yl)-1-cyanopyrrolidine-3-carboxamide], below 1000 nM.
Under `COCCOc1cc(-n2cnc(NC(=O)[C@H]3CCN(C#N)C3)c2)ccc1C#N` [Example 243, (S)-1-cyano-N-(1-(4-cyano-3-(2-methoxyethoxy)phenyl)-1H-imidazol-4-yl)pyrrolidine-3-carboxamide] stands below 1000 nM; under `COCCOc1ccc(C#N)c(-n2cnc(NC(=O)[C@H]3CCN(C#N)C3)c2)c1` [Example 244, (S)-1-cyano-N-(1-(2-cyano-5-(2-methoxyethoxy)phenyl)-1H-imidazol-4-yl)pyrrolidine-3-carboxamide], below 1000 nM.
Under `N#Cc1ccc(-n2cnc(NC(=O)[C@H]3CCN(C#N)C3)c2)cc1OCCCN1CCOCC1` [Example 245, (S)-1-cyano-N-(1-(4-cyano-3-(3-morpholinopropoxy)phenyl)-1H-imidazol-4-yl)pyrrolidine-3-carboxamide] stands below 1000 nM.
`N#Cc1ccc(OCCCN2CCOCC2)cc1-n1cnc(NC(=O)[C@H]2CCN(C#N)C2)c1` [Example 246, (S)-1-cyano-N-(1-(2-cyano-5-(3-morpholinopropoxy)phenyl)-1H-imidazol-4-yl)pyrrolidine-3-carboxamide]: the IC50 was below 1000 nM.
For `N#Cc1ccc(-n2cnc(NC(=O)[C@H]3CCN(C#N)C3)c2)cc1O[C@H]1CCOC1` [Example 247, (S)-1-cyano-N-(1-(4-cyano-3-(((S)-tetrahydrofuran-3-yl)oxy)phenyl)-1H-imidazol-4-yl)pyrrolidine-3-carboxamide], the IC50 is below 1000 nM.
Under `N#Cc1ccc(O[C@H]2CCOC2)cc1-n1cnc(NC(=O)[C@H]2CCN(C#N)C2)c1` [Example 248, (S)-1-cyano-N-(1-(2-cyano-5-(((S)-tetrahydrofuran-3-yl)oxy)phenyl)-1H-imidazol-4-yl)pyrrolidine-3-carboxamide] stands 1000 to 10000 nM; under `N#Cc1ccc(-n2cnc(NC(=O)[C@H]3CCN(C#N)C3)c2)cc1OC1COC1` [Example 249, (S)-1-cyano-N-(1-(4-cyano-3-(oxetan-3-yloxy)phenyl)-1H-imidazol-4-yl)pyrrolidine-3-carboxamide], below 1000 nM; under `N#Cc1ccc(OC2COC2)cc1-n1cnc(NC(=O)[C@H]2CCN(C#N)C2)c1` [Example 250, (S)-1-cyano-N-(1-(2-cyano-5-(oxetan-3-yloxy)phenyl)-1H-imidazol-4-yl)pyrrolidine-3-carboxamide], below 1000 nM.
Under `N#CN1CC[C@H](C(=O)Nc2cc(-c3ccnc4ccnn34)ccn2)C1` [Example 251, (S)-1-cyano-N-(4-(pyrazolo[1,5-a]pyrimidin-7-yl)pyridin-2-yl)pyrrolidine-3-carboxamide] stands below 1000 nM; under `N#CN1CC[C@H](C(=O)Nc2cc(-c3ccnc4nccn34)ccn2)C1` [Example 252, (S)-1-cyano-N-(4-(imidazo[1,2-a]pyrimidin-5-yl)pyridin-2-yl)pyrrolidine-3-carboxamide], 1000 to 10000 nM; under `N#CN1CC[C@H](C(=O)Nc2cc(-c3cccc4nccn34)ccn2)C1` [Example 253, (S)-1-cyano-N-(4-(imidazo[1,2-a]pyridin-5-yl)pyridin-2-yl)pyrrolidine-3-carboxamide], below 1000 nM.
On to `N#CN1CC[C@H](C(=O)Nc2cc(-c3cn4ccnc4cn3)ccn2)C1` [Example 254, (S)-1-cyano-N-(4-(imidazo[1,2-a]pyrazin-6-yl)pyridin-2-yl)pyrrolidine-3-carboxamide], for which the IC50 was below 1000 nM.
Regarding `N#CN1CC[C@H](C(=O)Nc2cc(-c3cnc4nccn4c3)ccn2)C1` [Example 255, (S)-1-cyano-N-(4-(imidazo[1,2-a]pyrimidin-6-yl)pyridin-2-yl)pyrrolidine-3-carboxamide], the IC50 was below 1000 nM.
Under `N#CN1CC[C@H](C(=O)Nc2cc3cccnc3cn2)C1` [Example 256, (S)-1-cyano-N-(1,7-naphthyridin-6-yl)pyrrolidine-3-carboxamide] stands 1000 to 10000 nM.
To `N#CN1CC[C@H](C(=O)Nc2cc(-c3cccc(Cl)c3)ncn2)C1` [Example 257, (S)-N-(6-(3-chlorophenyl)pyrimidin-4-yl)-1-cyanopyrrolidine-3-carboxamide] belongs 1000 to 10000 nM; to `N#CN1CC[C@H](C(=O)Nc2cc(-c3ccnc(N)c3)ccn2)C1` [Example 258, (S)-N-(2′-amino-[4,4′-bipyridin]-2-yl)-1-cyanopyrrolidine-3-carboxamide], 1000 to 10000 nM.
Under `CNc1cc(-c2ccnc(NC(=O)[C@H]3CCN(C#N)C3)c2)ccn1` [Example 259, (S)-1-cyano-N-(2′-(methylamino)-[4,4′-bipyridin]-2-yl)pyrrolidine-3-carboxamide] stands 1000 to 10000 nM.
For the molecule `CNC(=O)c1ccc2cnc(NC(=O)[C@H]3CCN(C#N)C3)cc2c1` [Example 260, (S)-3-(1-cyanopyrrolidine-3-carboxamido)-N-methylisoquinoline-6-carboxamide], the concentration for half-maximal inhibition (IC50) was 1000 to 10000 nM.
Under `Cc1noc(C)c1-c1ccc2cnc(NC(=O)[C@H]3CCN(C#N)C3)cc2c1` [Example 261, (S)-1-cyano-N-(6-(3,5-dimethylisoxazol-4-yl)isoquinolin-3-yl)pyrrolidine-3-carboxamide] stands below 1000 nM.

For orientation: IC50 means the point on the concentration scale where inhibition reaches its midpoint.

These data come from patent US11472798B2 (Mission Therapeutics Limited, priority 2014, dated 2022).
